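Dose response: 5 concentrations. Exposure: 48 h. Format: 96-well plates. Endpoint: linear interpolation; highest concentration if not reached. At the GI50, growth is halved.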 Activity calls are given as the source filed them. Cut-off read from the data, not from the text of the source: active = GI50 up to about 1.1 µM and inactive = higher.
Assays:
Experiment in all cases: DTP human tumour cell line panel, 48 h
DLD-1 = test system: DLD-1
M19-MEL = test system: M19-MEL
KM-20L2 = test system: KM-20L2
DMS-114 = test system: DMS-114
RXF 631 = test system: RXF 631
DMS-273 = test system: DMS-273
XF498 = test system: XF498
LXFL 529 = test system: LXFL 529
HOP-18 = test system: HOP-18

Measured: GI50

S=C(Nc1ccccc1)Nc1ccccc1SC(/C=C/NNC1=NN=C(c2ccccc2)C(c2ccccc2)N1)c1ccccc1 (stereo not drawn)
inactive: DLD-1 79.8 µM | M19-MEL > 100 µM | KM-20L2 > 100 µM | DMS-114 12.2 µM | RXF 631 > 100 µM | DMS-273 > 100 µM | XF498 > 100 µM

CCc1cc(CCC(=O)Nc2c(C)cccc2C)n[nH]1
inactive: DLD-1 > 100 µM | M19-MEL > 100 µM | KM-20L2 > 100 µM | LXFL 529 > 100 µM | RXF 631 > 100 µM | DMS-273 > 100 µM | HOP-18 > 100 µM | XF498 > 100 µM

O=[N+]([O-])[C@@H]1C2C=CC(C2)[C@H]1Cl (stereo partly drawn)
inactive: DLD-1 > 100 µM | M19-MEL > 100 µM | DMS-114 > 100 µM | LXFL 529 > 100 µM | RXF 631 > 100 µM | DMS-273 > 100 µM | HOP-18 > 100 µM | XF498 > 100 µM
